Experimental data published in patent US10730875B2, “Substituted imidazo[1,2-A]pyridin-2-ylamine compounds, and pharmaceutical compositions and methods of use thereof” (JN Therapeutics, priority 2015, dated 2020).

Experiments:
[1] = tested on: human Janus kinase 3 (JAK3), recombinant catalytic domain; assay: LanthaScreen TR-FRET enzymatic assay, JAK3; assay type: biochemical; conditions: ratio of IC50 against JAK3 over IC50 against JAK1
Procedure, shortened: (§1)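 Insect-cell-expressed catalytic domains (JAK1 aa 866-1154, 440 ng/mL; JAK2 aa 808-1132, 11 ng/mL; JAK3 aa 781-1124, 400 ng/mL; TYK2 aa 833-1187, 200 ng/mL) preincubated 15 min with compound, then reacted 1 h at room temperature with 100 nM GFP-STAT1 and 1 mM ATP. pTyr701 detected by TR-FRET (terbium antibody); IC50 from 10-dose sigmoid fits.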

[2] = molecular target: human Janus kinase 3 (JAK3), recombinant catalytic domain (Homo sapiens (Human), UniProt P52333); assay: LanthaScreen TR-FRET enzymatic assay, JAK3; assay type: biochemical; conditions: TR-FRET, 1 mM ATP, GFP-STAT1 substrate; read-out: Inhibitory Activity IC50 JAK3
Sequence of human Janus kinase 3 (JAK3), recombinant catalytic domain (Homo sapiens (Human), UniProt P52333) (P52333 781-1124): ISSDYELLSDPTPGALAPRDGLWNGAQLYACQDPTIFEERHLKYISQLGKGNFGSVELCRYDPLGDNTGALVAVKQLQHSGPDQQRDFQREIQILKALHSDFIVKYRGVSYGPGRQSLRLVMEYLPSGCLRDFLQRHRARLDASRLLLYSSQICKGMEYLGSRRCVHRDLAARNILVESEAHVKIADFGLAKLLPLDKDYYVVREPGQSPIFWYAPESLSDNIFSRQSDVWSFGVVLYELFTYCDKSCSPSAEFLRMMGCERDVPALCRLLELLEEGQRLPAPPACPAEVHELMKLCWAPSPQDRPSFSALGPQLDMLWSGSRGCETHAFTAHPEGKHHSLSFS
Procedure, shortened: as §1

[3] = Pharmacokinetics in Sprague-Dawley rats (HPLC-MS/MS of plasma); assay type: in vivo; conditions: rat
Description: The PK parameters of compound 14 were determined in Sprague-Dawley rats (Hubei Provincial Laboratory Animal Research Center) after a single oral (p.o) and intravenous (i.v.) administration using HPLC-MS/MS (Shimadzu LC-20ACXR HPLC coupled with AB Sciex API 4500 Qtrap).
A sensitive and specific HPLC-MS/MS method was developed for the determination of the compound in rat plasma. Multiple reaction monitoring (MRM) mode was used for the quantification of the compound by monitoring the ion transitions at m/z from 443.1 to 375.1. Compound 2 was used as an internal standard and monitored by the ion transition at m/z from 427.1 to 357.1. Calibration curves were constructed in the range of 1.00-1000 ng/mL in rat plasma extract by a 1/×2 weighted quadratic regression. The regression coefficients obtained were greater than 0.99 and back calculated values comprised in the range of ±15% from their nominal concentration.
For the intravenous administration, the compound was dissolved in 25% PEG200 in saline and intravenously administrated at a single dose of 1.00 mg/kg. For the oral administration, the compound was suspended in 0.5% sodium carboxymethylcellulose (CMC-Na) solution and intragastrically administrated at a single dose of 5.00 mg/kg. Approximately 0.200 mL of blood sample were collected from orbital venous plexus at 0 (predose), 0.25, 0.5, 1, 2, 4, 8, 12 and 24 hrs post dosing. All samples were placed into EDTA-K2-treated tubes and centrifuged at 3,500 rpm at 4° C. for 10 min to separate the plasma fractions. The plasma samples were stored at −20° C. prior to analysis. The plasma samples were analyzed with the HPLC-MS/MS method.

[4] = molecular target: human Janus kinase 1 (JAK1), recombinant catalytic domain (Homo sapiens (Human), UniProt P23458); assay: LanthaScreen TR-FRET enzymatic assay, JAK1; assay type: biochemical; conditions: 1 mM ATP, GFP-STAT1 substrate, read-out: Inhibitory Activity IC50 JAK1
Sequence of human Janus kinase 1 (JAK1), recombinant catalytic domain (P23458 866-1154): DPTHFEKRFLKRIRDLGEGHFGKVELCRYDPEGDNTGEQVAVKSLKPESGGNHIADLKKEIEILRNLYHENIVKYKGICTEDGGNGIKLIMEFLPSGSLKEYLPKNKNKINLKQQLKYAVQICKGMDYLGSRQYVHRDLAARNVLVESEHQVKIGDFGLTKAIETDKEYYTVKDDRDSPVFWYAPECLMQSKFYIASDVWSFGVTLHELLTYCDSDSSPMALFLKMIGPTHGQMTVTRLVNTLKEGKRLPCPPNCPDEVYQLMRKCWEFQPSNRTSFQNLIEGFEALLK
Procedure, shortened: as §1

[5] = molecular target: human Janus kinase 2 (JAK2), recombinant catalytic domain (Homo sapiens (Human), UniProt O60674); assay: LanthaScreen TR-FRET enzymatic assay, JAK2; assay type: biochemical
Sequence of human Janus kinase 2 (JAK2), recombinant catalytic domain (O60674 808-1132): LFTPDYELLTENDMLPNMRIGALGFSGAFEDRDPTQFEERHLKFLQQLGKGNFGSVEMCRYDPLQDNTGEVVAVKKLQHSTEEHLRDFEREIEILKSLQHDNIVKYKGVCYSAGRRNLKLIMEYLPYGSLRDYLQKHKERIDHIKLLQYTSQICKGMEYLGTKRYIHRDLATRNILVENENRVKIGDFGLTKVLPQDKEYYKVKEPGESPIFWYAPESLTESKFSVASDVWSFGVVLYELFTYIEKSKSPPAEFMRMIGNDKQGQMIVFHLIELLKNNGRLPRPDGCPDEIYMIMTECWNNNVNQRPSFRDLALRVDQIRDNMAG
Procedure, shortened: as §1

[6] = Sprague-Dawley, plasma, IV, single dose 1.00 mg/kg
[7] = Sprague-Dawley, plasma, PO, single dose 5.00 mg/kg

With `O=C(Nc1cn2c(-c3ccc(CN4CCS(=O)(=O)CC4)cc3F)cccc2n1)C1CC1` [Compound 14] the “Selectivity JAK3/JAK1” value [1] was “A′ (A′ represents a ratio of greater than 8)”, the IC50 [2] was > 5 µM and the F ([3]; PO, single dose 5.00 mg/kg) was 46.7 ± 7.3%. It also gave an AUC(0-t) [3, 6] of 677 ± 122 ng·h/mL, an MRT [3, 6] of 1.4 ± 0.2 h and a clearance [3, 6] of 24.8 mL/min/kg. It also gave a half-life [3, 6] of 1.4 ± 0.3 h, a Vd ([3]; Sprague-Dawley, plasma, IV, single dose 1.00 mg/kg, read-out: Vz) of 2.98 ± 0.912 L/kg and an AUC(0-t) [3, 7] of 1590 ± 253 ng·h/mL. It also gave a Cmax [3, 7] of 571 ± 190 ng/mL, an MRT [3, 7] of 2.3 ± 0.4 h and a Tmax [3, 7] of 0.63 ± 0.25 h. The half-life [3, 7] was 1.9 ± 0.3 h, the IC50 [4] was ≤ 0.5 µM and the IC50 ([5]; TR-FRET, 1 mM ATP, GFP-STAT1 substrate, read-out: Inhibitory Activity IC50 JAK2) was 1 to 5 µM. The “Selectivity JAK2/JAK1” value ([5]; ratio of IC50 against JAK2 over IC50 against JAK1) was “A′ (A′ represents a ratio of greater than 8)”.
